# Test results as given in ChEMBL document CHEMBL4665885, “Structural Basis of Nanomolar Inhibition of Tumor-Associated Carbonic Anhydrase IX: X-Ray Crystallographic and Inhibition Study of Lipophilic Inhibitors with Acetazolamide Backbone” (J Med Chem, 2020).
# Experiments:
# [1] = target: Carbonic anhydrase 1 (Homo sapiens, UniProt P00915); test: Inhibition of recombinant human CA1 expressed in Escherichia coli BL21 preincubated for 15 mins by phenol red dye-based stopped-flow CO2 hydration assay
# Sequence of Carbonic anhydrase 1 (P00915 whole entry): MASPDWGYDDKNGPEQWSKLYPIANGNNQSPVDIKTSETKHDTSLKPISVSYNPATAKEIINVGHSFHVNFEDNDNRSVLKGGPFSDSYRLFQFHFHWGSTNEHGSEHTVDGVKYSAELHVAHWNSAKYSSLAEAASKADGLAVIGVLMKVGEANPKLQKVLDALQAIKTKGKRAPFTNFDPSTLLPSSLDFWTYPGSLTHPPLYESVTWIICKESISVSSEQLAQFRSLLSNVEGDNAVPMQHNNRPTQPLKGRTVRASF
# [2] = target: Carbonic anhydrase 9 (Homo sapiens, UniProt Q16790); test: Inhibition of recombinant human CA9 expressed in Escherichia coli BL21 preincubated for 15 mins by phenol red dye-based stopped-flow CO2 hydration assay
Ki [1] [nM],Ki [2] [nM],Structure (SMILES)
63.4,8.2,CC(C)(C)C(=O)Nc1nnc(S(N)(=O)=O)s1
75.1,2.4,CC(C)C(=O)Nc1nnc(S(N)(=O)=O)s1
53.8,2.1,CCCC(=O)Nc1nnc(S(N)(=O)=O)s1
62.8,15.7,NS(=O)(=O)c1nnc(NC(=O)C2CCCCC2)s1
,12.8,CCC(=O)Nc1nnc(S(N)(=O)=O)s1 [PROPAZOLAMIDE]
